In patent publication US12304890B2, “R-type pyridyloxycarboxylic acid, salt and ester derivative thereof, and preparation method therefor, and herbicidal composition and application thereof” (Qingdao Kingagroot Chemical Compound Co., Ltd., priority 2018, dated 2025):

Key:
Assay type in all cases: in vivo
[1] = tested on: Digitaria sanguinalis; assay: Post-emergence test experiment, Digitaria sanguinalis; details: 1000 g a.i./ha, 3 weeks in greenhouse, fresh weight inhibition
Procedure, shortened: (§1)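 Greenhouse post-emergence spray at 2-3 leaf stage (2 wk after sowing); acetone/tween-80 formulation, methyl oleate EC synergist 1.5 L/ha, water-diluted. Plants held 3 wk, then fresh weight inhibition rate read.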

[2] = tested on: Echinochloa crusgalli; assay: Post-emergence test experiment, Echinochloa crusgalli; details: 1000 g a.i./ha, 3 weeks in greenhouse, fresh weight inhibition
Procedure, shortened: as §1

[3] = tested on: Monocotyledonous and dicotyledonous weed seeds and main crop seeds; assay: Post-emergence test experiment, other weeds and crops (Table 4, 1000 g a.i./ha); details: 3 weeks in greenhouse, fresh weight inhibition
Procedure, shortened: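 Growth inhibition is scored on fresh weight. Spray solutions were made in acetone with tween-80, diluted in water, plus 1.5 L/ha methyl oleate emulsible concentrate. Plants from greenhouse-grown weed and crop seeds were treated post-emergence at 2-3 leaves, 2 weeks after sowing.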

SMILES	Activity level (growth inhibition rate), Digitaria sanguinalis [1]	Activity level (growth inhibition rate), Echinochloa crusgalli [2]	Activity level (growth inhibition rate), Abutilon theophrasti Medic. [3]	Activity level (growth inhibition rate), Galium aparine [3]	Activity level (growth inhibition rate), Monochoria Vaginalis [3]
Cc1ccccc1COC(=O)C(C)Oc1nc(F)c(Cl)c(N)c1Cl (stereo not drawn) [Compound 2-302]	5 (Level 5: the growth inhibition rate is greater than 85%)	5 (Level 5: the growth inhibition rate is greater than 85%)	5 (Level 5: the growth inhibition rate is greater than 85%)	5 (Level 5: the growth inhibition rate is greater than 85%)	5 (Level 5: the growth inhibition rate is greater than 85%)
Cc1ccccc1CSC(=O)C(C)Oc1nc(F)c(Cl)c(N)c1Cl (stereo not drawn) [Compound 2-303]	5 (Level 5: the growth inhibition rate is greater than 85%)	5 (Level 5: the growth inhibition rate is greater than 85%)	5 (Level 5: the growth inhibition rate is greater than 85%)	5 (Level 5: the growth inhibition rate is greater than 85%)	5 (Level 5: the growth inhibition rate is greater than 85%)
Cc1cccc(COC(=O)C(C)Oc2nc(F)c(Cl)c(N)c2Cl)c1 (stereo not drawn) [Compound 2-304]	5 (Level 5: the growth inhibition rate is greater than 85%)	5 (Level 5: the growth inhibition rate is greater than 85%)	5 (Level 5: the growth inhibition rate is greater than 85%)	5 (Level 5: the growth inhibition rate is greater than 85%)	5 (Level 5: the growth inhibition rate is greater than 85%)
Cc1cccc(CSC(=O)C(C)Oc2nc(F)c(Cl)c(N)c2Cl)c1 (stereo not drawn) [Compound 2-305]	5 (Level 5: the growth inhibition rate is greater than 85%)	5 (Level 5: the growth inhibition rate is greater than 85%)	5 (Level 5: the growth inhibition rate is greater than 85%)	5 (Level 5: the growth inhibition rate is greater than 85%)	5 (Level 5: the growth inhibition rate is greater than 85%)
Cc1ccc(COC(=O)C(C)Oc2nc(F)c(Cl)c(N)c2Cl)cc1 (stereo not drawn) [Compound 2-306]	5 (Level 5: the growth inhibition rate is greater than 85%)	5 (Level 5: the growth inhibition rate is greater than 85%)	5 (Level 5: the growth inhibition rate is greater than 85%)	5 (Level 5: the growth inhibition rate is greater than 85%)	5 (Level 5: the growth inhibition rate is greater than 85%)
Cc1ccc(CSC(=O)C(C)Oc2nc(F)c(Cl)c(N)c2Cl)cc1 (stereo not drawn) [Compound 2-307]	5 (Level 5: the growth inhibition rate is greater than 85%)	5 (Level 5: the growth inhibition rate is greater than 85%)	5 (Level 5: the growth inhibition rate is greater than 85%)	5 (Level 5: the growth inhibition rate is greater than 85%)	5 (Level 5: the growth inhibition rate is greater than 85%)
CC(Oc1nc(F)c(Cl)c(N)c1Cl)C(=O)OCc1ccccc1F (stereo not drawn) [Compound 2-308]	5 (Level 5: the growth inhibition rate is greater than 85%)	5 (Level 5: the growth inhibition rate is greater than 85%)	5 (Level 5: the growth inhibition rate is greater than 85%)	5 (Level 5: the growth inhibition rate is greater than 85%)	5 (Level 5: the growth inhibition rate is greater than 85%)
CC(Oc1nc(F)c(Cl)c(N)c1Cl)C(=O)SCc1ccccc1F (stereo not drawn) [Compound 2-309]	5 (Level 5: the growth inhibition rate is greater than 85%)	5 (Level 5: the growth inhibition rate is greater than 85%)	5 (Level 5: the growth inhibition rate is greater than 85%)	5 (Level 5: the growth inhibition rate is greater than 85%)	5 (Level 5: the growth inhibition rate is greater than 85%)
CC(Oc1nc(F)c(Cl)c(N)c1Cl)C(=O)OCc1cccc(F)c1 (stereo not drawn) [Compound 2-310]	5 (Level 5: the growth inhibition rate is greater than 85%)	5 (Level 5: the growth inhibition rate is greater than 85%)	5 (Level 5: the growth inhibition rate is greater than 85%)	5 (Level 5: the growth inhibition rate is greater than 85%)	5 (Level 5: the growth inhibition rate is greater than 85%)
CC(Oc1nc(F)c(Cl)c(N)c1Cl)C(=O)SCc1cccc(F)c1 (stereo not drawn) [Compound 2-311]	5 (Level 5: the growth inhibition rate is greater than 85%)	5 (Level 5: the growth inhibition rate is greater than 85%)	5 (Level 5: the growth inhibition rate is greater than 85%)	5 (Level 5: the growth inhibition rate is greater than 85%)	5 (Level 5: the growth inhibition rate is greater than 85%)
CC(Oc1nc(F)c(Cl)c(N)c1Cl)C(=O)OCc1ccc(F)cc1 (stereo not drawn) [Compound 2-312]	5 (Level 5: the growth inhibition rate is greater than 85%)	5 (Level 5: the growth inhibition rate is greater than 85%)	5 (Level 5: the growth inhibition rate is greater than 85%)	5 (Level 5: the growth inhibition rate is greater than 85%)	5 (Level 5: the growth inhibition rate is greater than 85%)
CC(Oc1nc(F)c(Cl)c(N)c1Cl)C(=O)SCc1ccc(F)cc1 (stereo not drawn) [Compound 2-313]	5 (Level 5: the growth inhibition rate is greater than 85%)	5 (Level 5: the growth inhibition rate is greater than 85%)	5 (Level 5: the growth inhibition rate is greater than 85%)	5 (Level 5: the growth inhibition rate is greater than 85%)	5 (Level 5: the growth inhibition rate is greater than 85%)
